Results: patent US7838674B2, “Tetracyclic lactame derivatives” (Novartis AG, priority 2007, dated 2010)
Where a name gives a salt, the structure may show the parent alone.

The compounds below were run against T1, MAPKAPK2 enzyme (HIS-MK2, Invitrogen PV4019) (Homo sapiens, UniProt P49137) (assay: Alternative MAPKAPK2 assay (Caliper microfluidic mobility shift, HSP27-peptide)). Conditions: HIS-MK2 0.013 nM, ATP 10 μM, 60 min at 30° C.
T1 construct: His; purchased Invitrogen PV4019
T1 sequence (P49137 whole entry): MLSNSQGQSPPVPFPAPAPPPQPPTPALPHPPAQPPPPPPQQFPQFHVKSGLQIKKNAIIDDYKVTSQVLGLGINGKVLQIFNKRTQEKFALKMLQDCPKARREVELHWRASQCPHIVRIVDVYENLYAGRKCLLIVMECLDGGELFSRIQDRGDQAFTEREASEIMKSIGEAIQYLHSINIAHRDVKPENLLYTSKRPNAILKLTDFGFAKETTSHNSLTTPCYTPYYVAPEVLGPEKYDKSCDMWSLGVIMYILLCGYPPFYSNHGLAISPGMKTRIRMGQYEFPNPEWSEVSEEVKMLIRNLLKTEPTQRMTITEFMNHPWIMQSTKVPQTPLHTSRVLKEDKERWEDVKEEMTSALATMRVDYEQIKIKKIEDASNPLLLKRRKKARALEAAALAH
Format: biochemical
`O=C1NC2CCC2c2[nH]c3c(c21)CCc1cnc(-c2cccc(F)c2)cc1-3` (single isomer, unassigned; (+)) [Example 51, (+)-2-(2-Amino-cyclobutyl)-8-(3-fluoro-phenyl)-4,5-dihydro-1H-pyrrolo[2,3-f]isoquinoline-3-carboxylic acid lactam] showed an IC50 of 28 nM.
`COc1ccc(-c2ncc3c(n2)-c2c(c4c(n2C)C2(CNC4=O)CN(C)C2)CC3)cc1` [Example 219, 2-(3-Aminomethyl-1-methyl-azetidin-3-yl)-8-(4-methoxy-phenyl)-1-methyl-4,5-dihydro-1H-1,7,9-triaza-cyclopenta[a]naphthalene-3-carboxylic acid lactam] gave an IC50 of 20 nM.
Work on `O=C1NC2(CC2)Cc2[nH]c3c(c21)CCc1cnc(-c2ccc(CCCN4CCOCC4)cc2)cc1-3` [Example 246, 2-(1-Amino-cyclopropylmethyl)-8-[4-(3-morpholin-4-yl-propyl)-phenyl]-4,5-dihydro-1H-pyrrolo[2,3-f]isoquinoline-3-carboxylic acid lactam] yielded an IC50 of 100 nM.
`Cn1c2c(c3c1-c1nc(-c4cccc(Br)c4)ncc1CC3)C(=O)NC1(CNC1)C2` [Example 286, 2-(3-Amino-azetidin-3-ylmethyl)-8-(3-bromo-phenyl)-1-methyl-4,5-dihydro-1H-1,7,9-triaza-cyclopenta[a]naphthalene-3-carboxylic acid lactam hydrochloride] showed an IC50 of 48 nM.
`COc1ccc(-c2cc3c(cn2)CCc2c4c(n(C)c2-3)CC2(CNC2)NC4=O)cc1` [Example 38, 2-(3-Amino-azetidin-3-ylmethyl)-8-(4-methoxy-phenyl)-1-methyl-4,5-dihydro-1H-pyrrolo[2,3-f]isoquinoline-3-carboxylic acid lactam hydrochloride] showed an IC50 of 20 nM.
With `O=C1NC2(CC2)Cc2[nH]c3c(c21)CCc1cnc(-c2ccc(N4CCOCC4)nc2)cc1-3` [Example 236, 2-(1-Amino-cyclopropylmethyl)-8-(6-morpholin-4-yl-pyridin-3-yl)-4,5-dihydro-1H-pyrrolo[2,3-f]isoquinoline-3-carboxylic acid lactam] the IC50 was 22 nM.
For `CN1CC2(CNC(=O)c3c4c(n(C)c32)-c2cc(-c3cccc(Cl)c3)ncc2CC4)C1` [Example 190, 2-[3-Aminomethyl-1-methyl-azetidin-3-yl]-8-(3-chloro-phenyl)-1-methyl-4,5-dihydro-1H-pyrrolo[2,3-f]isoquinoline-3-carboxylic acid lactam], the IC50 was 7 nM.
Work on `COc1ccc(-c2cc3c(cn2)CCc2c-3[nH]c3c2C(=O)N[C@@H]2C[C@H]32)cc1` (racemic) [Example 52, (+)-2-(2-Amino-cyclopropyl)-8-(4-methoxy-phenyl)-4,5-dihydro-1H-1,7-diaza-cyclopenta[a]naphthalene-3-carboxylic acid lactam] yielded an IC50 of 35 nM.
Compound `Cn1c2c(c3c1C1(CNC1)CNC3=O)CCc1cnc(-c3cccc(Cl)c3)cc1-2` [Example 189, 2-[3-Aminomethyl-azetidin-3-yl]-8-(3-chloro-phenyl)-1-methyl-4,5-dihydro-1H-pyrrolo[2,3-f]isoquinoline-3-carboxylic acid lactam hydrochloride] has an IC50 of 6 nM.
`CN1CCN(c2ccc(-c3cc4c(cn3)CCc3c-4[nH]c4c3C(=O)NC3(CC3)C4)cc2)CC1` [Example 217, 2-(1-Amino-cyclopropylmethyl)-8-(4-methyl-piperazin-1-yl-phenyl)-4,5-dihydro-1H-pyrrolo[2,3-f]isoquinoline-3-carboxylic acid lactam] was tested, and the IC50 was 93 nM.
In the case of `Cn1c2c(c3c1-c1cc(-c4cncc(-c5ccccc5F)c4)ncc1CC3)C(=O)NC1(CNC1)C2` [Example 135, 2-(3-Amino-azetidin-3-ylmethyl)-8-[5-(2-fluoro-phenyl)-pyridin-3-yl]-1-methyl-4,5-dihydro-1H-pyrrolo[2,3-f]isoquinoline-3-carboxylic acid lactam hydrochloride], the IC50 is reported as 32 nM.
`O=C1NC2(CC2)C2(CNC2)c2[nH]c3c(c21)CCc1cnc(-c2ccc(C(F)(F)F)nc2)cc1-3` [Example 211, 2-[3-(1-Amino-cyclopropyl)-azetidin-3-yl]-8-(6-trifluoromethyl-pyridin-3-yl)-4,5-dihydro-1H-pyrrolo[2,3-f]isoquinoline-3-carboxylic acid lactam hydrochloride] was tested, and the IC50 was < 3 nM.
`Cc1ccc(-c2cc3c(cn2)CCc2c4c(n(C)c2-3)CC2(CN(C)C2)NC4=O)cn1` [Example 150, 2-(3-Amino-1-methyl-azetidin-3-ylmethyl)-8-(6-methyl-pyridin-3-yl)-1-methyl-4,5-dihydro-1H-pyrrolo[2,3-f]isoquinoline-3-carboxylic acid lactam] was tested, and the IC50 was 92 nM.
Work on `CC(C)N1CCN(c2ccc(-c3cc4c(cn3)CCc3c-4[nH]c4c3C(=O)NCC43CC3)cc2C#N)CC1` [Example 314, 2-(4-Isopropyl-piperazin-1-yl)-10-spirocyclopropyl-5-(7-oxo-6,7,8,9,10,11-hexahydro-5H-3,8,11-triaza-benzo[a]fluoren-2-yl)-benzonitrile] yielded an IC50 of 12 nM.
`O=C1NCC2(CNC2)c2[nH]c3c(c21)CCc1cnc(-c2ccc(F)nc2F)cc1-3` [Example 205, 2-(3-Aminomethyl-azetidin-3-yl)-8-(2,6-difluoro-pyridin-3-yl)-4,5-dihydro-1H-pyrrolo[2,3-f]isoquinoline-3-carboxylic acid lactam hydrochloride] was tested, and the IC50 was < 3 nM.
With `CN1CCN(c2c(F)cc(-c3cc4c(cn3)CCc3c-4[nH]c4c3C(=O)NCC43CC3)cc2C#N)CC1` [Example 317, 3-Fluoro-2-(4-methyl-piperazin-1-yl)-10-spirocyclopropyl-5-(7-oxo-6,7,8,9,10,11-hexahydro-5H-3,8,11-triaza-benzo[a]fluoren-2-yl)-benzonitrile] the IC50 was 51 nM.
Work on `COc1cccc(-c2ncc3c(n2)-c2c(c4c(n2C)CC2(CNC2)NC4=O)CC3)c1` [Example 137, 2-(3-Amino-azetidin-3-ylmethyl)-8-(3-methoxy-phenyl)-1-methyl-4,5-dihydro-1H-1,7,9-triaza-cyclopenta[a]naphthalene-3-carboxylic acid lactam hydrochloride] yielded an IC50 of 49 nM.
Compound `COc1cc(OC)cc(-c2cc3c(cn2)CCc2c4c(n(C)c2-3)CC2(CNC2)NC4=O)c1` [Example 143, 2-(3-Amino-azetidin-3-ylmethyl)-8-(3,5-dimethoxy-phenyl)-1-methyl-4,5-dihydro-1H-pyrrolo[2,3-f]isoquinoline-3-carboxylic acid lactam hydrochloride] has an IC50 of 69 nM.
In the case of `O=C1NC2(CC2)Cc2[nH]c3c(c21)CCc1cnc(-c2ccc(CCCN4CC(O)C4)cc2)cc1-3` [Example 248, 2-(1-Amino-cyclopropylmethyl)-8-{4-[3-(3-hydroxy-azetidin-1-yl)-propyl]-phenyl}-4,5-dihydro-1H-pyrrolo[2,3-f]isoquinoline-3-carboxylic acid lactam], the IC50 is reported as 80 nM.
`O=C1NCC2(CC2)c2[nH]c3c(c21)CCc1cnc(-c2cncc(N4CCOCC4)c2)cc1-3` [Example 302, 2-(5-Morpholin-4-yl-pyridin-3-yl)-10-spirocyclopropyl-5,6,8,9,10,11-hexahydro-3,8,11-triaza-benzo[a]fluoren-7-one] gave an IC50 of 22 nM.
`O=C1NC2(CC2)C2(CC2)c2[nH]c3c(c21)CCc1cnc(-c2ccc(OCCN4CCOCC4)cc2)cc1-3` [Example 230, 2-(1′-Amino-bicyclopropyl-1-yl)-8-[4-(2-morpholin-4-yl-ethoxy)-phenyl]-4,5-dihydro-1H-pyrrolo[2,3-f]isoquinoline-3-carboxylic acid lactam] showed an IC50 of 36 nM.
Work on `CC(C)(O)CCc1ccc(-c2cc3c(cn2)CCc2c-3[nH]c3c2C(=O)NC2(CC2)C3)cc1` [Example 77, 2-(1-Amino-cyclopropylmethyl)-8-[4-(3-hydroxy-3-methyl-butyl)-phenyl]-4,5-dihydro-1H-pyrrolo[2,3-f]isoquinoline-3-carboxylic acid lactam] yielded an IC50 of 85 nM.
For `COc1ccc(-c2cc3c(cn2)CCc2c-3[nH]c3c2C(=O)NCC32CNC2)cc1` [Example 165, 2-(3-Aminomethyl-azetidin-3-yl)-8-(4-methoxy-phenyl)-4,5-dihydro-1H-pyrrolo[2,3-f]isoquinoline-3-carboxylic acid lactam hydrochloride], the IC50 was < 3 nM.
`CN1CCOc2cc(-c3cc4c(cn3)CCc3c-4[nH]c4c3C(=O)NCC43CC3)ccc21` [Example 130, 2-(1-Aminomethyl-cyclopropyl)-8-(4-methyl-3,4-dihydro-2H-benzo[1,4]oxazin-7-yl)-4,5-dihydro-1H-pyrrolo[2,3-f]isoquinoline-3-carboxylic acid lactam] gave an IC50 of 45 nM.
`O=C1NCC2(CC2)c2[nH]c3c(c21)CCc1cnc(-c2cncc(F)c2)cc1-3` [Example 112, 2-(1-Aminomethyl-cyclopropyl)-8-(5-fluoro-pyridin-3-yl)-4,5-dihydro-1H-pyrrolo[2,3-f]isoquinoline-3-carboxylic acid lactam] was tested, and the IC50 was 9 nM.
`COc1ccc(-c2cc3c(cn2)CCc2c4c(n(C)c2-3)C2(CNC4=O)CN(C)C2)cc1` [Example 164, 2-(3-Aminomethyl-1-methyl-azetidin-3-yl)-8-(4-methoxy-phenyl)-1-methyl-4,5-dihydro-1H-pyrrolo[2,3-f]isoquinoline-3-carboxylic acid lactam] was tested, and the IC50 was 22 nM.
`Cc1cncc(-c2cc3c(cn2)CCc2c-3[nH]c3c2C(=O)NC2(CCC2)C3)c1` [Example 102, 2-(1-Amino-cyclobutylmethyl)-8-(5-methyl-pyridin-3-yl)-4,5-dihydro-1H-pyrrolo[2,3-f]isoquinoline-3-carboxylic acid lactam] showed an IC50 of 62 nM.
`O=C1NCC2(CNC2)c2[nH]c3c(c21)CCc1cnc(-c2ccc(N4CCOCC4)nc2)nc1-3` [Example 329, 2-(3-Aminomethyl-azetidin-3-yl)-8-(6-morpholin-4-yl-pyridin-3-yl)-4,5-dihydro-1H-1,7,9-triaza-cyclopenta[a]naphthalene-3-carboxylic acid lactam] showed an IC50 of 6 nM.
`Cc1ccc(-c2cc3c(cn2)CCc2c4c(n(C)c2-3)CC2(CNC2)NC4=O)cn1` [Example 151, 2-(3-Amino-azetidin-3-ylmethyl)-8-(6-methyl-pyridin-3-yl)-1-methyl-4,5-dihydro-1H-pyrrolo[2,3-f]isoquinoline-3-carboxylic acid lactam hydrochloride] showed an IC50 of 35 nM.
